Laboratory results taken from patent US8664179B2, “Identification of novel antagonist toxins of T-type calcium channel for analgesic purposes” (Centre National de la Recherche Scientifique (CNRS), priority 2009, dated 2014).
Ends that are not written are not given here.

Experiments:
human Cav3.2 = biological target: T1, human Cav3.2 (Homo sapiens, UniProt O95180); assay: Double microelectrode imposed-voltage recording of CaV3.2 current in Xenopus oocytes; assay type: cell-based; details: 5 mM barium, depolarization at -30 mV from -100 mV, after 30 seconds (FIG. 2)
T1 construct: expressed in transfected cells; host or cells: Xenopus laevis oocytes (cDNA injection)
Description: The current is recorded in a solution containing 5 mM barium as charge carrier and it is produced by depolarization at −30 mV starting from a rest potential of −100 mV.
The cDNA coding for human Cav3.2 is injected into oocytes of Xenopus (Xenopus laevis) as described in Altier, C., Dubel, S. J., Barrére, C., Jarvis, S. E., Stotz, S. C., Spaetgens, R. L., Scott, J. D., Cornet, V., De Waard, M., Zamponi, G. W., Nargeot, J. and Bourinet, E. (2002) “Trafficking of L-type calcium channels mediated by postsynaptic scaffolding protein AKAP79.” J. Biol. Chem., 277, 33598-33603 (Ref 5) and in Dubel, S. J., Altier, C., Chaumont, S., Lory, P., Bourinet, E. and Nargeot, J. (2004) “Plasma Membrane Expression of T-type Calcium Channel {alpha}1 Subunits Is Modulated by High Voltage-activated Auxiliary Subunits.” J Biol Chem, 279, 29263-29269 (Ref 6). The currents are recorded by the technique of imposed voltage by double microelectrode using a [sequence]500 amplifier (registered trademark) (MOLECULAR DEVICES (registered trademark)) controlled by the PCLAMP9 software (registered trademark). […] The fractions (10 μl) are applied manually, directly on the oocyte recorded by means of a pipette.

[1] = biological target: T2, human Cav3.2 calcium channel (Homo sapiens, UniProt O95180); assay: Whole-cell patch clamp on HEK293 cells stably expressing the human Cav3.2 calcium channel; assay type: cell-based; details: CaV3.2 current, HEK293, FIG. 8
T2 construct: expressed in transfected cells
Description: Starting from this stock concentration, the peptides were diluted in a solution corresponding to the extracellular solution used for the patch clamp analysis. This solution has the following composition (in mM): NaCl 135, TEACl 20, HEPES 10, CaCl2 2, MgCl21 (pH 7.3 with TEAOH).
HEK293 cells (ATCC) stably expressing the complementary DNA sequence of the human Cav3.2 calcium channel were used. At each passage of the cell line, cells were seeded at low density on culture dishes for “patch clamp” analysis (molecular electrophysiology).
The electrophysiological recordings were made by the “patch clamp” technique in the “whole cell” configuration using an Axopatch200B amplifier controlled by a Digidata interface and the pClamp10 software (Molecular Devices). The extracellular recording solution containing 2 mM calcium is described above.
The intrapipette solution used for the recordings has the following composition: CsCl 130 mM, HEPES 10 mM, EGTA 10 mM, CaCl2 2 mM, MgCl2 1 mM, MgATP 4 mM, TrisGTP 0.3 mM (pH 7.3 with NaOH). The results are analyzed using [sequence] (registered trademark), EXCEL (registered trademark) and [sequence] (registered trademark) software. […]
These “dose-effect” curves were analyzed with [sequence] […]

C57BL/6J mice [2] = assay: Tail immersion test in a water bath at 46° C. (thermal pain); assay type: in vivo; details: intrathecal injection, 10 and 100 nM, versus control group receiving physiological solution
Description: Mice are used for observing the analgesic effect of the peptide of the invention with respect to pain induced by thermal stimuli.
(§1) The mice are C57BL/6J wild-type mice and C57BL/6J CaV3.2−/− mice. The total number of mice is 10 wild-type and 10 CaV3.2−/−.
Two groups of mice (C57BL/6J) are used, one group injected intrathecally with a physiological solution comprising the peptide of the invention at a concentration of 10 and 100 nM and a second group (control group) receiving only intrathecal injection of physiological solution alone. The mice are then submitted to the test of immersion of the tail in a water bath at 46° C. The purpose of this experiment is to determine the time after which the mice react to the painful heat, thus showing the threshold of appearance of the painful signal connected with perception of heat. The same experiment is conducted in parallel on two other groups of C57BL/6J mice lacking the gene coding for the T-type calcium channel encoded by the CaV3.2 subunit. The purpose of this experiment is to show the selectivity of the peptide of the invention.

C57BL/6J mice [3] = assay: Mechanical stimulation test with von Frey bristles; assay type: in vivo; details: intrathecal injection, 10 and 100 nM, versus control group receiving physiological solution
Description: Mice are used for observing the analgesic effect of the peptide of the invention with respect to mechanical stimuli.
as §1
Two groups of mice (C57BL/6J) are used, one group injected intrathecally with a physiological solution comprising the peptide of the invention at a concentration of 10 and 100 nM and a second group (control group) only receiving intrathecal injection of the physiological solution alone. The mice are then submitted to the mechanical stimulation test with von Frey bristles. The purpose of this experiment is to determine the threshold of reaction to a mechanical stimulus of increasing intensity applied on the arch of the foot. The animals' reaction threshold is correlated with the appearance of the painful signal connected with the perception of mechanical pressure. The same experiment is conducted in parallel on two other groups of C57BL/6J mice lacking the gene coding for the T-type calcium channel encoded by the CaV3.2 subunit. The purpose of this experiment is to show the selectivity of the peptide of the invention.

T2 sequence (O95180 whole entry): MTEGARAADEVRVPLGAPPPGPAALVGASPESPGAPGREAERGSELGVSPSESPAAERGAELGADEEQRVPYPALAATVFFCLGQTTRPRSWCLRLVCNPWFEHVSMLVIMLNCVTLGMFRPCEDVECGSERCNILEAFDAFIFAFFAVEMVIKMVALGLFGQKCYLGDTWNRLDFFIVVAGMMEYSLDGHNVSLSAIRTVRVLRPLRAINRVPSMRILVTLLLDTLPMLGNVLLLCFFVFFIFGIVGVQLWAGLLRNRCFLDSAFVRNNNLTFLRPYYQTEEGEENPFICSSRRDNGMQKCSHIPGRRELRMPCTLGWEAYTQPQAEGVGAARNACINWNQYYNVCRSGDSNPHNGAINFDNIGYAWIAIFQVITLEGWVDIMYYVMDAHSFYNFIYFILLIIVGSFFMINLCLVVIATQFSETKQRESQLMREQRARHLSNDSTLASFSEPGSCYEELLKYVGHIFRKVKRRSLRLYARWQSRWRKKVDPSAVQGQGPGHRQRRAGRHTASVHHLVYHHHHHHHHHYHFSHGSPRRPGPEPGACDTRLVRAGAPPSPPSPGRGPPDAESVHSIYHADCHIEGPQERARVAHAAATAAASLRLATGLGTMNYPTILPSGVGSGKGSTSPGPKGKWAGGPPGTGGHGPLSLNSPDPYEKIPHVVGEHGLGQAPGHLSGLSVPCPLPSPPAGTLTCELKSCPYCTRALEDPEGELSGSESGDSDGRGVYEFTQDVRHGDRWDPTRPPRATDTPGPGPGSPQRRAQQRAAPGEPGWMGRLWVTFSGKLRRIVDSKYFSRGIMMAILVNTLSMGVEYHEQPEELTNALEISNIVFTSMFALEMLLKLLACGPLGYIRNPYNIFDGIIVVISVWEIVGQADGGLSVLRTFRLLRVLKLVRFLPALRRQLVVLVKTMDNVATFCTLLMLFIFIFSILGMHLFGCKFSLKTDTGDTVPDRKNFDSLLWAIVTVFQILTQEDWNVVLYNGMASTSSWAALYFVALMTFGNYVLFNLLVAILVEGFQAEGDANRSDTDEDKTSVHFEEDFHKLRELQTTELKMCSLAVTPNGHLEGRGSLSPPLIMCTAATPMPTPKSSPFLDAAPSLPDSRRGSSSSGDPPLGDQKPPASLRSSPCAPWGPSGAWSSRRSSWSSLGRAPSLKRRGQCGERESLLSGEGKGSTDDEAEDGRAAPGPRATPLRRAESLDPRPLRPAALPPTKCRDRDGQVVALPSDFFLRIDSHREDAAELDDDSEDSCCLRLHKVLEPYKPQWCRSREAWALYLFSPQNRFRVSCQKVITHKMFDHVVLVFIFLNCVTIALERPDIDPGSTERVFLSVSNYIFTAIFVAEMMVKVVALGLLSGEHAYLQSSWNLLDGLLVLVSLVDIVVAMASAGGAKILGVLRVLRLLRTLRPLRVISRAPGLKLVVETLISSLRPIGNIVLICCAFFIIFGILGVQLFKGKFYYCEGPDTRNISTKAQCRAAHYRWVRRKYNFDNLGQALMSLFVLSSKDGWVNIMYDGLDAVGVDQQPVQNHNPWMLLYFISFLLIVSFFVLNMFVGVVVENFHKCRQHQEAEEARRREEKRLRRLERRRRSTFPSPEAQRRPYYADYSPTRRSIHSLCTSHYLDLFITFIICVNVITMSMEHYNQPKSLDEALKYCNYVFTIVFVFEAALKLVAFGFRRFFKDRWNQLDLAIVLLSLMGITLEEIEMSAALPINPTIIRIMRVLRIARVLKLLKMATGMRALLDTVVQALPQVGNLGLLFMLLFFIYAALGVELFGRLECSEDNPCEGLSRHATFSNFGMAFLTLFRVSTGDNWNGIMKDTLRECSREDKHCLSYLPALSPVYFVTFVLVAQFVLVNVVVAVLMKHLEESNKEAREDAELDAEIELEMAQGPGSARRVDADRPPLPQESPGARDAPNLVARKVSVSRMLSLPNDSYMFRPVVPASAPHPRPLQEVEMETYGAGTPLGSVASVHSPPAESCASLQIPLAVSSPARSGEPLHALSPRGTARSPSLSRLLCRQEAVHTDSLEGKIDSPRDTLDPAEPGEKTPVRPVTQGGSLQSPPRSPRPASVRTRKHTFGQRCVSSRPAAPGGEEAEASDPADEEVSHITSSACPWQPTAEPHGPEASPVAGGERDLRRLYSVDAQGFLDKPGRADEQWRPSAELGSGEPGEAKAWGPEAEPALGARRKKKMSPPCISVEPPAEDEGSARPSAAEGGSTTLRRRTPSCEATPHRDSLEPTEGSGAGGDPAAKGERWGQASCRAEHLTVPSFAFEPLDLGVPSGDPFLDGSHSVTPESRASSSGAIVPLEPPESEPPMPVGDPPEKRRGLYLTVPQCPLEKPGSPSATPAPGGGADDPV
T1 sequence (O95180 whole entry): as above

Row | Compound | current of the Cav3.2 channel after application of the toxin (human Cav3.2) | Hill number (slope of dose-effect curve) [1] | time to react to heat (C57BL/6J mice [2]) | threshold of perception of mechanical pressure (C57BL/6J mice [3])
1 | CC[C@H](C)[C@H](NC(=O)[C@H](CCCCN)NC(=O)[C@@H]1CSSC[C@@H]2NC(=O)[C@@H]3CCCN3C(=O)[C@H](CCCNC(=N)N)NC(=O)[C@H](CCC(=O)O)NC(=O)[C@H](CO)NC(=O)[C@H](CC(=O)O)NC(=O)[C@@H]3CSSC[C@H](NC(=O)[C@H](C(C)C)NC(=O)[C@H](CC(C)C)NC(=O)CNC(=O)[C@H](CCC(=O)O)NC(=O)[C@H](CSSC[C@H](NC(=O)[C@@H](N)Cc4ccc(O)cc4)C(=O)N[C@@H](CCC(N)=O)C(=O)N[C@@H](CCCCN)C(=O)N[C@@H](Cc4ccccc4)C(=O)N[C@@H](CC(C)C)C(=O)N[C@@H](Cc4c[nH]c5ccccc45)C(=O)N[C@@H]([C@@H](C)O)C(=O)N3)NC2=O)C(=O)N[C@@H](CCCNC(=N)N)C(=O)N[C@@H](CC(C)C)C(=O)N[C@@H](Cc2c[nH]c3ccccc23)C(=O)N1)C(=O)N[C@@H](CC(N)=O)C(=O)O [natural toxin] | strongly inhibited | 0.87 |  | 
2 | CC[C@H](C)[C@H](NC(=O)[C@H](CCCCN)NC(=O)[C@@H]1CSSC[C@@H]2NC(=O)[C@@H]3CCCN3C(=O)[C@H](CCCNC(=N)N)NC(=O)[C@H](CCC(=O)O)NC(=O)[C@H](CO)NC(=O)[C@H](CC(=O)O)NC(=O)[C@@H]3CSSC[C@H](NC(=O)[C@H](C(C)C)NC(=O)[C@H](CC(C)C)NC(=O)CNC(=O)[C@H](CCC(=O)O)NC(=O)[C@H](CSSC[C@H](NC(=O)[C@@H](N)Cc4ccc(O)cc4)C(=O)N[C@@H](CCC(N)=O)C(=O)N[C@@H](CCCCN)C(=O)N[C@@H](Cc4ccccc4)C(=O)N[C@@H](CC(C)C)C(=O)N[C@@H](Cc4c[nH]c5ccccc45)C(=O)N[C@@H]([C@@H](C)O)C(=O)N3)NC2=O)C(=O)N[C@@H](CCCNC(=N)N)C(=O)N[C@@H](CC(C)C)C(=O)N[C@@H](Cc2c[nH]c3ccccc23)C(=O)N1)C(=O)N[C@@H](CC(N)=O)C(=O)O [synthetic peptide] |  | 0.89 |  | 
3 | YCQKFLWTCDSERPCCEGLVCRLWCKIN (disulfide (positions not given here); not fully specified (bridges); also: 3 disulfide bridges between the 6 cysteines, pairing not given here) [peptide of sequence SEQ ID NO 1] |  |  | significantly longer | significantly higher
